From the supplement of paper PMC11451515

Test system: NOMO1
Assay: cell viability relative to DMSO control; higher = less cytotoxic
Conditions: 48 h
How it was run: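 Viability values are per-plate percentages of DMSO wells, with background from cell-free wells. Library compounds in DMSO were pin-dosed, in an 11-point threefold series from 47 μM to 0.79 nM, onto NOMO1 or SEM (500 cells/well) or P12-Ichikawa (1000 cells/well) leukemia cells in 1536-well plates (5 μl). Those cells had been adapted for at least four passages in each medium, and CellTiter-Glo One luminescence was read after 48 h at 37°C.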

[1] = HPLM + 10% dialyzed FBS, 0.000781 µM
[2] = HPLM + 10% dialyzed FBS, 0.00234 µM
[3] = HPLM + 10% dialyzed FBS, 0.00702 µM
[4] = HPLM + 10% dialyzed FBS, 0.0211 µM
[5] = HPLM + 10% dialyzed FBS, 0.0632 µM
[6] = HPLM + 10% dialyzed FBS, 0.19 µM
[7] = HPLM + 10% dialyzed FBS, 0.569 µM
[8] = HPLM + 10% dialyzed FBS, 1.71 µM
[9] = HPLM + 10% dialyzed FBS, 5.12 µM
[10] = HPLM + 10% dialyzed FBS, 15.4 µM
[11] = HPLM + 10% dialyzed FBS, 46.1 µM
[12] = RPMI 5 mM glucose + 10% FBS, 0.000781 µM
[13] = RPMI 5 mM glucose + 10% FBS, 0.00234 µM
[14] = RPMI 5 mM glucose + 10% FBS, 0.00702 µM
[15] = RPMI 5 mM glucose + 10% FBS, 0.0211 µM
[16] = RPMI 5 mM glucose + 10% FBS, 0.0632 µM
[17] = RPMI 5 mM glucose + 10% FBS, 0.19 µM
[18] = RPMI 5 mM glucose + 10% FBS, 0.569 µM
[19] = RPMI 5 mM glucose + 10% FBS, 1.71 µM
[20] = RPMI 5 mM glucose + 10% FBS, 5.12 µM
[21] = RPMI 5 mM glucose + 10% FBS, 15.4 µM
[22] = RPMI 5 mM glucose + 10% FBS, 46.1 µM
[23] = RPMI 5 mM glucose + 10% dialyzed FBS, 0.000781 µM
[24] = RPMI 5 mM glucose + 10% dialyzed FBS, 0.00234 µM
[25] = RPMI 5 mM glucose + 10% dialyzed FBS, 0.00702 µM
[26] = RPMI 5 mM glucose + 10% dialyzed FBS, 0.0211 µM
[27] = RPMI 5 mM glucose + 10% dialyzed FBS, 0.0632 µM
[28] = RPMI 5 mM glucose + 10% dialyzed FBS, 0.19 µM
[29] = RPMI 5 mM glucose + 10% dialyzed FBS, 0.569 µM
[30] = RPMI 5 mM glucose + 10% dialyzed FBS, 1.71 µM
[31] = RPMI 5 mM glucose + 10% dialyzed FBS, 5.12 µM
[32] = RPMI 5 mM glucose + 10% dialyzed FBS, 15.4 µM
[33] = RPMI 5 mM glucose + 10% dialyzed FBS, 46.1 µM

SMILES	cell viability [1] [%]	cell viability [2] [%]	cell viability [3] [%]	cell viability [4] [%]	cell viability [5] [%]	cell viability [6] [%]	cell viability [7] [%]	cell viability [8] [%]	cell viability [9] [%]	cell viability [10] [%]	cell viability [11] [%]	cell viability [12] [%]	cell viability [13] [%]	cell viability [14] [%]	cell viability [15] [%]	cell viability [16] [%]	cell viability [17] [%]	cell viability [18] [%]	cell viability [19] [%]	cell viability [20] [%]	cell viability [21] [%]	cell viability [22] [%]	cell viability [23] [%]	cell viability [24] [%]	cell viability [25] [%]	cell viability [26] [%]	cell viability [27] [%]	cell viability [28] [%]	cell viability [29] [%]	cell viability [30] [%]	cell viability [31] [%]	cell viability [32] [%]	cell viability [33] [%]
Cc1csc(NC(=O)c2sc3nc4c(c(C(F)(F)F)c3c2N)CCC4)n1	91.6	102	97.9	101	96.7	96.4	99.4	91.4	94	79.6	77.6	81.7	94.4	92.3	87.4	90.6	86	91.7	88.1	87.2	78.3	85.5	83.5	91.2	93	93.1	91.3	89.4	91	97.9	96.3	95.3	89.7
COC/1=C/C=C2\C(=C/C1=O)[C@H](CCC3=CC(=C(OC)C(=C23)OC)OC)NC(C)=O	36.2	33.8	45.9	49.8	40.4	27	30.5	25.3	19.8	20	10.6	23.7	20	17.1	20.2	21.5	24.3	17.9	7.99	12.5	10.8	2.76	23.7	21.5	23.3	29.1	24.9	21.3	23.5	13.1	14.3	12.8	3.31
NCCCCNCCCN	110	101	119	112	109	95.3	116	121	105	67.1	26.7	108	99.6	98.2	104	99.4	104	94.8	99.1	105	103	27.7	107	104	111	107	107	105	110	115	119	109	35.4
COC1=CC=CC(=C1N)\C2=C\C(=O)C3=C(O2)C=CC=C3												120	121	119	117	143	125	143	124	126	121	116											
ClC1=CC\2=C(OC3=C(C=CC=C3)\N=C2N4CCNCC4)C=C1	106	111	106	94.5	105	103	118	91.1	91.7	83.3	90.7	87	90.1	95.9	94.8	88.7	101	100	87.7	86.5	83.7	84	101	84	94.3	91.1	92.1	90.7	93.3	90.6	90.7	88.4	91.1
Cn1cc(/C=C2\C(=O)Nc3cccnc32)c2ccccc21	118	138	122	138	157	138	138	146	126	123	98.8	113	119	130	129	143	123	124	142	125	77.1	89.3	117	118	117	132	130	140	141	147	128	78.2	84.3
O=C(Nc1ncc(SCCN2CCCC2)s1)[C@]1(c2ccc([S+](=O)([O-])C3CC3)cc2)C[C@H]1C1CCCCC1	111	136	110	123	120	106	105	102	103	70.2	5.84	125	127	123	111	123	113	107	128	108	104	25.1	118	117	118	126	124	111	114	117	110	94.2	17.4
CC[C@@]1(O)C(=O)OCC/2=C1/C=C3\N(CC4=CC5=CC(=CC=C5N=C34)O)C2=O												116	123	133	107	113	33.3	23.8	22.6	18.6	22.8	13.4	111	124	117	117	121	40.4	23.8	25.8	24.5	26.4	9.6
Cn1c(=O)n(-c2ccc(C(C)(C)C#N)cc2)c2c3cc(-c4cnc5ccccc5c4)ccc3ncc21	99.4	99.2	105	97.5	91.2	89.2	61.1	37.4	41.9	33.9	32.2	103	114	104	102	106	99.9	89.8	52.4	28.7	19.8	27.1	102	120	111	112	94.9	73.4	66.4	49.3	33.7	22.6	30.5
CN1CCC[C@@H]1CCO[C@](C)(c1ccccc1)c1ccc(Cl)cc1	96	112	95.7	102	112	109	119	107	110	112	95.2	100	105	101	110	107	105	100	109	114	115	103	93.3	112	105	97.2	117	108	104	102	104	112	87.8
CN(C)CCN(C)C(=O)c1ccc(NC(=O)Nc2ccc(-c3nc(N4CCOCC4)c4ccn(CC(F)(F)F)c4n3)cc2)cc1												101	115	117	130	109	91.2	74.5	70	75.7	78.7	81.9	116	113	113	121	92.6	78.5	81.7	67.4	72.5	68.1	69.5
Nc1cc(C(F)(F)F)c(-c2cc(N3CCOCC3)nc(N3CCOCC3)n2)cn1												115	127	118	133	130	120	98.4	74.5	14.8	6.77	7.91											
CC/1=C(/C(CC(=O)N1)C2=CC=C(C=C2)C(F)(F)F)C(=O)NC3=C(F)C=C4[NH]N=CC4=C3 (stereo not given)	94.2	94.5	103	108	104	100	105	98.6	96.1	33.6	11.5	92	92.7	85.7	81.2	89.6	86	86.9	82.4	84.2	66.7	23.9	91.7	89.1	104	96.1	95	84.7	97.5	95.3	92.1	58	28
Oc1cccc(-c2nc(N3CCOCC3)c3oc4ncccc4c3n2)c1	121	92.1	117	91.8	92.3	107	115	102	129	96.4	103	109	113	116	123	112	108	104	87.4	128	124	122	120	106	125	98.9	110	102	80.4	77.7	109	106	126
C[C@]12CC[C@H]3[C@@H](CCC/4=C/C(=O)CC[C@]34C)[C@@H]1CC[C@@H]2O	93.4	113	126	111	136	126	123	111	130	127	137	109	118	134	143	146	145	129	134	147	153	147	107	121	135	137	142	141	147	129	145	138	143
C[C@]12CC[C@@H]3c4ccc(O)cc4CC[C@H]3[C@@H]1C[C@@H](O)[C@@H]2O												116	114	106	114	114	107	123	117	118	118	115	115	121	129	125	120	110	114	113	110	105	95.9
Cc1cnc(C(=O)O)c[n+]1[O-]												109	122	110	127	129	115	101	118	105	103	112											
CN1CCCC(CC1)N2\N=C(CC3=CC=C(Cl)C=C3)/C4=C(C=CC=C4)C2=O (stereo not given)	101	108	109	122	127	125	112	120	109	65.7	48.1	102	107	120	109	109	112	108	114	107	94.2	55.5	117	118	107	110	125	128	121	109	112	106	57.1
